Entries after “also recorded” stand apart in the source; their conditions may differ.

The nature of data set [1]: Release of rhodamine B from PLGA microspheres during incubation in PBS. The following applies: 37° C. In kind it is physicochemical. The procedure:
(§1) The rhodamine B, in its free base form, was dissolved in PLGA/ethyl acetate solutions at theoretical loadings of 1, 3 and 5%(mass drug/mass polymer). Microspheres of uniform 35, 50 and 65 μm diameters were fabricated, hardened and collected using the procedures described in the above examples. The presence of rhodamine had no observable effect on particle uniformity. Encapsulation of rhodamine (˜70% efficiency) was confirmed by fluorescence microscopy (FIG. 6, right). The rhodamine B is released from the spheres over the course of 7-10 days of incubation in PBS and 37° C.

Data set [2] is described as follows: Encapsulation of rhodamine B in PLGA microspheres, confirmed by fluorescence microscopy. In kind it is physicochemical. The following applies: PLGA microspheres from PLGA/ethyl acetate solution, theoretical loadings 1, 3 and 5%. As to the method:
as §1

As to `CCN(CC)c1ccc2c(-c3ccccc3C(=O)O)c3ccc(=[N+](CC)CC)cc-3oc2c1` [rhodamine B], in data set [1] (PLGA microspheres of uniform 35, 50 and 65 μm diameters, theoretical loadings 1, 3 and 5% (mass drug/mass polymer), incubation in PBS), the “time over which rhodamine B is released from the spheres” value is 7 to 10 days. For the same molecule, the release rate entry in data set [1] (dependence on sphere size and drug loading, PLGA microspheres in PBS) is reported as “faster when spheres were smaller (not shown) or contained more drug; also recorded: faster when spheres contained more drug”. The molecule also showed an encapsulation efficiency in data set [2] of around 70%.

For the origin of these results see patent publication US7368130B2, “Microparticles” (The Board of Trustees of the University of Illinois, priority 2000, dated 2008).
